In assay [1] the test system is Streptozotocin-treated diabetic BALB/c mice transplanted with B6 islets. The assay can be described thus: Islet allograft survival, B6 islets transplanted into Streptozotocin-treated diabetic BALB/c mice. In kind it is in vivo, mouse. As to conditions: FIG. 2. The protocol: (§1) FIG. 1 is a timeline detailing the administration of anti-B Lymphocyte Stimulator (anti-BLys™) antibodies and Rapamycin in Streptozotocin-treated diabetic mice transplanted with islets from another mouse strain.
FIG. 2 is a graph illustrating the percent survival (y-axis) versus time in days (x-axis) for Streptozotocin-treated diabetic BALB/c mice transplanted with B6 islets. Mice were administered Rapamycin (Rapa) (-□-); anti-B Lymphocyte Stimulator (anti-BLys™) antibodies and Rapamycin (anti-BLys™/Rapa) (-Δ-); or neither (no treatment; control) (-⋄-) in accordance with the timeline set forth in FIG. 1.
(§2) BLyS™ regulates mature B-lymphocyte survival and negative selection at the transitional to follicular (TR:FO) tolerance checkpoint. To determine the effect of BLyS™ in an in vivo allograft model, murine islet cells from B6 and BALB/c donor mice were transplanted into Streptozotocin-treated diabetic BALB/c and B6 mice, respectively. The recipient mice were treated with a regimen consisting of a B-lymphocyte depleting dose of a neutralizing anti-BLyS™ mAb (100 μg) on days 10 and 1 post-transplantation, followed by a weekly maintenance taper (50 μg×2 wks, 25 μg×2 wks, 10 μg×2 wks, and 5 μg×2 wks). Starting on the day of islet transplantation, the Streptozotocin treated diabetic recipients were treated with 0.5 mg/kg Rapamycin every other day for two weeks.

Assay [2] concerns Streptozotocin-treated diabetic B6 mice transplanted with BALB/c islets. The assay can be described thus: Islet allograft survival, BALB/c islets transplanted into Streptozotocin-treated diabetic B6 mice. As to conditions: FIG. 3. In kind it is in vivo, mouse. The protocol: as §1
FIG. 3 is a graph illustrating the percent survival (y-axis) versus time in days (x-axis) for Streptozotocin-treated diabetic B6 mice transplanted with BALB/c islets. Mice were administered Rapamycin (Rapa) (-□-); anti-B Lymphocyte Stimulator (anti-BLys™) antibodies and Rapamycin (anti-BLys™/Rapa) (-Δ-); or neither (no treatment; control) (-⋄-) in accordance with the timeline set forth in FIG. 1.
as §2

As to `CO[C@H]1C[C@@H]2CC[C@@H](C)[C@@](O)(O2)C(=O)C(=O)N2CCCC[C@H]2C(=O)O[C@H]([C@H](C)C[C@@H]2CC[C@@H](O)[C@H](OC)C2)CC(=O)[C@H](C)/C=C(\C)[C@@H](O)[C@@H](OC)C(=O)[C@H](C)C[C@H](C)/C=C/C=C/C=C/1C` [Rapamycin], the “mean survival time (MST)” value in assay [1] is given as 61 days; in assay [2] it was 39 days.

For the origin of these results see patent US20160311914A1, “USE OF B LYMPHOCYTE STIMULATOR PROTEIN ANTAGONISTS TO PROMOTE TRANSPLANTATION TOLERANCE” (The Trustees of the University of Pennsylvania, priority 2009, published 2016).
